{"source": "patent US7977282B2", "about": "“Chemical amendments for the stimulation of biogenic gas generation in deposits of carbonaceous material” (Luca Technologies, Inc., priority 2006, dated 2011)", "key": {"[1]": {"tested_on": "microorganisms present in the sample (Monarch coal seam coal and formation water)", "assay": "Biogenic methane generation from Monarch coal samples with hydrogen, phosphorous compound and ammonia amendments", "conditions": "different coal and formation water sample; no ammonium and phosphate amendment", "quoted_text": "Experiments were conducted to compare biogenic methane generation from coal samples after introducing an amendment of hydrogen gas, a phosphorous compound, and ammonia. For each experiment, methane generation from coal samples from the Monarch coal seam in the Powder River Basin in Wyoming was periodically measured over the course of about 627 days. Each anaerobic 5 gram coal sample was placed in a nominal 36.5 ml serum bottle with 15 mL of anaerobic water that was also taken from the formation. The coal and formation water were placed in the serum bottle while working in an anaerobic glove bag. The headspace in the bottle above the sample was flushed with a mixture of N2 and CO2 (95/5).\nThe methane levels in the headspace above the samples was periodically measured and recorded. The methane was measured by running samples of the headspace gases through a gas chromatograph equipped with a thermal conductivity detector."}, "[2]": {"tested_on": "microorganism consortia in coal samples", "source_text": "Rollover is a condition where the rate of biogenic methane production starts to plateau as the in situ methane concentration reaches a certain level. In many instances, the rate flattens to zero, and the methane concentration remains constant over time. The rollover point (i.e., the point where the methane concentration begins to break from a monotonically increasing state) can vary between microorganism consortia, but appears to be reached in almost all unamended samples of carbonaceous material that have been examined to date."}, "[3]": {"tested_on": "methanogenesis in Powder River Basin coal and formation water", "assay": "Single and multiple nutrient amendments, Powder River Basin coal (FIG. 9)", "assay_type": "cell-based", "conditions": "phosphate 5 mg/L, yeast extract about 500 mg/L, BESA about 10 mM", "quoted_text": "Two comparative groups were also measured: (1) Samples of the Power River Basin coal to which no amendments were added (unamended), and (2) Samples of the PRB coal to which bromoethanesulfonic acid (BESA), a known methanogen-specific inhibitor, was added.\nThe headspace in the bottle above the sample was exchanged with helium.\nThe amendments were added to the sample bottles until a target concentration of the amendment was reached. […] For the yeast extract only amended, Difco® yeast extract from Becton Dickinson and Company was added to the sample bottles until a concentration of about 500 mg/L was reached.\nFinally, for the samples used in the comparative example where methane production from methanogenesis was inhibited, BESA was added to the sample bottles until it reached a concentration of about 10 mM.\nMethane production from the samples were measured and plotted as the percentage of methane in the headspace above the liquid in the serum bottle. Three sample bottles were prepared for each amendment, and the methane concentrations were measured in triplicate and averaged."}, "[4]": {"tested_on": "coal formation in Wyoming's Powder River Basin", "procedure": "FIGS. 14A-B show graphs of measurements of methane gas production over time from a coal formation in Wyoming's Powder River Basin before and after an amendment of phosphate and filtered water was introduced to the formation.\nThe gas well was then treated with an amendment of phosphate and filtered water for about 1.2 months (i.e., late August to early October). The amendment included the introduction of an aqueous solution of 9.5×10^−5 M potassium phosphate to an underground natural gas formation at a rate of about 14,400 L/day for each day of the treatment period. Following the treatment period with the phosphorous amendment, the gas well was sealed for a period of about 2 months (i.e., early October to early December) before the measurements of gas were measured during the post-amendment period (the dwell period).\nThen the same phosphorous amendment as described for FIG. 14A was added to the formation for a 1.2 month period (i.e., late August to early October) followed by an approximately 2 month dwell period."}, "[5]": {"tested_on": "microorganisms in Monarch coal, formation water and cell concentrate", "conditions": "18.0 mM acetate", "procedure": "Experiments were conducted to measure the effects of acetate amendments on methane production from samples of carbonaceous materials. The carbonaceous materials used in these experiments were coal samples taken from underground coal beds at the Monarch coal site. […] The cell concentrate consisted of cells from about 6.6 L of formation water added to 15 mL of formation water.\nIn a first set of samples, the acetate amendment included adding an aqueous sodium acetate solution to the sample bottles to give the samples an 18.0 mM acetate concentration (an average measured concentration). A second set of control samples were prepared in the same manner except for lacking the acetate amendment. Methane levels (measured as a mol. % methane in the headspace of the sample bottle) were periodically measured in both the amendment and control samples over the course of 90 days."}, "[6]": {"tested_on": "methanogenesis in produced water and oil", "assay": "Phosphorous compound amendments in oil samples, field in Texas (FIG. 10)", "assay_type": "cell-based", "conditions": "45° C., 14 days, oil from Texas field", "procedure": "Produced water and oil samples were collected directly from well heads after passing produced fluids through a portable anaerobic and disinfected oil-water separator. Strict anoxic techniques were used. The water samples were maintained at field temperature prior to use in experiments. Twenty mls of produced water and 0.1 ml of oil were distributed into sterile 36.5 ml serum bottles contained within a disinfected anaerobic glove bag. The anaerobic glove bag contained a filtration apparatus for removing airborne microbial contaminants. […] Incubation temperature was 45° C., the approximate in-situ temperature. Incubation period prior to headspace gas analysis was 14 days. The samples were prepared with the following amendments: […] Final bottle concentration −0.5 mg/L as Phosphorous; (2) Minerals (100× less the stock concentration in Table 2); (3) Metals (300× less the stock concentration in Table 1); (4) Minerals+Metals+Yeast extract (25 mg/L); (5) Minerals+Metals+Vitamins (100× less the stock concentration in appendix 1)+Yeast extract (25 mg/L). In addition, two comparative experiments were run for: […] The experimental bottles were placed into a heated water bath maintained at the field temperature during gas analysis to avoid temperature fluctuations. […] The methane measurements, expressed as the percentage of methane in the headspace above the sample bottles, were plotted in FIG. 10."}, "[7]": {"tested_on": "methanogenesis and acetate production in produced water and oil", "assay": "Phosphorous compound amendments in oil samples, field in Montana (FIGS. 11A-B)", "assay_type": "cell-based", "conditions": "oil from Montana field", "procedure": "Produced water and oil samples were collected directly from well heads after passing produced fluids through a portable anaerobic and disinfected oil-water separator. Strict anoxic techniques were used. The water samples were maintained at field temperature prior to use in experiments.\nTwenty mls of produced water and 0.1 ml of oil were distributed into sterile 36.5 ml serum bottles contained within a disinfected anaerobic glove bag. The anaerobic glove bag contained a filtration apparatus for removing airborne microbial contaminants. […] Incubation temperature was 45° C., the approximate in-situ temperature. Incubation period prior to headspace gas analysis was 14 days. The samples were prepared with the following amendments: (1) Sodium phosphate. Final bottle concentration −0.5 mg/L as Phosphorous; (2) Minerals (100× less the stock concentration in Table 2); (3) Metals (300× less the stock concentration in Table 1); (4) Minerals+Metals+Yeast extract (25 mg/L); (5) Minerals+Metals+Vitamins (100× less the stock concentration in appendix 1)+Yeast extract (25 mg/L). […]\nThe experimental bottles were placed into a heated water bath maintained at the field temperature during gas analysis to avoid temperature fluctuations. […] The methane measurements, expressed as the percentage of methane in the headspace above the sample bottles, were plotted in FIG. 10. […]"}, "methanogenic consortia": {"tested_on": "methanogenic consortia", "assay": "Enrichment transfer of methanogenic consortia on coal (FIG. 13)", "assay_type": "cell-based", "procedure": "With the discovery that methanogenic consortia are commonly present in formation waters, a significant research effort, both laboratory and field oriented, was directed at identify methodologies for enhancing their activities in-situ. To this end, methanogenic consortia capable of rapid methanogenesis on coal from the Powder River Basin have been obtained using an enrichment procedure wherein a small volume of an active consortium is added to a “sterile” slurry bottle (in this case, autoclaved Tongue River coal and filter sterilized Tongue River formation water). The consortium is allowed to grow and metabolize, then the dilution series is repeated. This enrichment procedure appears to favor the growth of microorganisms more capable of metabolizing coal to methane. […] Very rapid methanogenesis was observed after the second transfer with rates 57 times greater on average relative to the parent samples (leftmost bars). The two exceptions to the trend were the last two sample sets on the far right of FIG. 13. These were cases in which methanogenesis was inhibited in the parental bottles intentionally with BESA and unintentionally in bottles that received solvent (pyridine) extracts of coal."}}, "note": "Entries after “also recorded” stand apart in the source; their conditions may differ."}
{"compound": "[HH]", "note": "[H2, hydrogen]", "values": [{"measurement": "effect on coal metabolism to methane", "setting": "[1]", "result": "stimulated coal metabolism to methane"}]}
{"compound": "Cl.N", "note": "[ammonium chloride]", "values": [{"measurement": "initial rate of methane production", "setting": "[2]; 25 mg/L nitrogen, FIG. 7", "result": "initially greater than for the unamended samples or samples with other types of amendments"}, {"measurement": "peak methane level", "setting": "[2]; 25 mg/L nitrogen, FIG. 7", "result": "exceeded the peak plateau levels in the unamended samples"}, {"measurement": "methane level versus unamended samples / plateau", "setting": "[2]; about day 600, FIG. 7", "result": "about the same as those measured in the unamended samples"}]}
{"compound": "O=P(O)(O)O", "note": "[potassium phosphate]", "values": [{"measurement": "methane production, percentage of methane in headspace", "setting": "[3]", "result": "rates and yields of methanogenesis were highest"}, {"measurement": "natural gas production rate relative to baseline period", "setting": "[4]; FIG. 14A", "result": "about double the average production rate during the baseline period"}, {"measurement": "natural gas production rate following treatment and dwell periods", "setting": "[4]; FIG. 14A, 9.5×10^−5 M, about 14,400 L/day for about 1.2 months, about 2 months dwell", "result": "over 9 mcf/day"}, {"measurement": "natural gas production rate following treatment", "setting": "[4]; FIG. 14B, declining formation", "result": "jump in the natural gas product rate"}, {"measurement": "methane level higher than samples without phosphate", "setting": "[2]; 5 mg/L, after 600 days, FIG. 7", "result": "about 43%"}, {"measurement": "methane level in headspace", "setting": "[2]; 5 mg/L, after 600 days, FIG. 7", "result": "about 4.3 mol. %"}, {"measurement": "methane concentration over time, rollover", "setting": "[2]; just over 600 days, FIG. 8", "result": "no plateau was observed; also recorded: significantly higher methane levels than samples treated with a minerals amendment or the samples that were unamended"}]}
{"compound": "CC(=O)[O-].[Na+]", "note": "[sodium acetate]", "values": [{"measurement": "activation period before methane generation", "setting": "[5]", "result": "about 65 days"}, {"measurement": "methane in the headspace of the sample bottle", "setting": "[5]; 90th day", "result": "over 12 mol. %"}]}
{"compound": "O=P(O)(O)O", "note": "[sodium phosphate]", "values": [{"measurement": "methanogenesis, percentage of methane in headspace", "setting": "[6]", "result": "comparable stimulation relative to more complex nutrient mixtures"}, {"measurement": "rate of methanogenesis", "setting": "[7]; FIG. 11A", "result": "highest rates of methanogenesis"}, {"measurement": "acetate production", "setting": "[7]; FIG. 11B", "result": "stimulated acetate production relative to the unamended controls"}]}
{"compound": "bromoethanesulfonic acid [BESA, reference compound]", "values": [{"measurement": "methane production, percentage of methane in headspace", "setting": "[3]", "result": "did not accumulate"}, {"measurement": "methanogenesis, percentage of methane in headspace", "setting": "[6]", "result": "below detection"}, {"measurement": "methanogenesis in parental bottles", "setting": "methanogenic consortia", "result": "inhibited"}]}
